Data on 2 compounds can be found in US20070036793A1, “Methods for use of an lkb1/strad7mo25 complex” (priority 2003, published 2007).

In experiment [1] the target is T1, AMPK (Homo sapiens, UniProt Q13131).
T1 construct: Endogenous AMPK was immunoprecipitated from the cell extracts and assayed; endogenous in cells; host or cells: HeLa cells (control, or stably expressing wild type or kinase-dead LKB1)
The experiment is described as follows: Activation and Thr-172 phosphorylation of endogenous AMPK in HeLa cells with or without stably expressed LKB1. Format: cell-based. Particulars: 2 mM AICA riboside or 10 mM phenformin, 60 min. On the procedure:
FIG. 18: Restoration of the ability of AMPK to be activated by AICA riboside and phenformin in HeLa cells by expression of LKB1. Control HeLa cells (lanes 1, 2, 3), HeLa cells expressing wild type (WT) LKB1 (lanes 4, 5, 6) and kinase dead (D194A, KD) mutant LKB1 (lanes 7, 8, 9) were either left unstimulated or treated with 2 mM AICA riboside or 10 mM phenformin for 60 min and lysed. (A) Endogenous AMPK was immunoprecipitated from the cell extracts and assayed. (B) The cell lysates was immunoblotted with antibodies recognising AMPKα1 phosphorylated at Thr172 or total AMPKα1; the results were analysed using the LI-COR IR Odyssesy™ imager as described under Materials and Methods, and are expressed as a ratio of the two signals. (C) The cell lysates was analysed by Western blotting and the membranes probed with antibodies recognising ACC phosphorylated at Ser-79, or streptavidin to determine total […]. The results were analysed using the LI-COR IR imager as for (B).
AMPK [14]and AMPKK [34] were assayed, and units defined, as described previously. Rapid lysis of cells for AMPK assays was as described previously. Assays were carried out in triplicate and results are expressed as mean ± standard deviation.
To analyse phosphorylation of ACC, samples were analysed by SDS-PAGE, transferred to nitrocellulose (BioRad) and incubated in Odyssey™ Blocking buffer containing 0.2% Tween-20 for 1 h. Anti-pACC antibody (1.46 μg/ml in blocking buffer) was then added and left shaking for 1 h. The membranes were washed 6×5 min with TBS (10 mM Tris-HCl, pH 7.4, 0.5M NaCl) plus Tween-20 (0.2%). The membranes were immersed in blocking buffer containing 0.2% Tween-20 and 1 μg/ml anti-sheep IgG conjugated to JR dye 680 (Molecular Probes, Leiden, The Netherlands) and 1 μg/ml streptavidin conjugated to IR Dye 800 (Rockland Inc., Philadelphia, Pa.) and left shaking for 1 h, protected from light. The membranes were then washed 6×5 min using TBS-Tween (0.2%) and 1×5 min in PBS. The membranes were scanned in two different channels using the Odyssey™ IR imager, the results quantified using Odyssey™ software and expressed as a ratio of the signal obtained with the pACC antibody to that obtained with streptavidin. Analysis of phosphorylation of GST-α1 catalytic domain was similar except that the 4-12% Bis-Tris gels were used, and the membranes were simultaneously probed for 1 h with the sheep anti-pT172 and anti-AMPKα1-catalytic domain antibodies, directly labelled with the IR dye 680 and IR Dye 800 respectively, according to manufacturers' instructions.

The target of experiment [2] is T1, AMPK. The experiment is described as above. Format: cell-based. Particulars: earlier unpublished results.
The test system of experiment [3] is AMPK. The experiment is described as follows: AMPK activation by drugs in other cell types. Format: cell-based.
Experiment [4] relates to AMPK-related kinases (NUAK2, QIK, QSK, SIK, MARK1, MARK2/3, MARK4). The experiment is described as follows: Activity of endogenous AMPK-related kinases immunoprecipitated from HeLa cells after phenformin. Type of experiment: cell-based, human. Particulars: HeLa cells (control, wild type or kinase inactive LKB1), 10 mM phenformin, 1 h. As for the experimental part: FIG. 29. Activity of AMPK-related kinases In HeLa cells. […] AMPKα1 and AMPK-related kinases were immunoprecipitated from the cell lysates, and in vitro kinase activity towards the AMARA peptide was measured as described in Materials and Methods (Example 4). To confirm equal expression of the kinases in each sample, cell lysates (AMPKα1, MARK2/3 and MARK4) or immunoprecipitated proteins (NUAK2, QIK, QSK, SIK and MARK1) were subjected to SDS-PAGE and western immunoblot analysis. All AMPK-related kinases migrated with the expected molecular mass. In the case of AMPKα1, cell lysates were immunoblotted with a pThr172 antibody (P-AMPK), that recognises the phosphorylated T-loop. Results shown are average + SD of 2-4 assays and are representative of at least two independent experiments.
Cell culture, stimulation and cell lysis. […] Protein concentrations were determined by the Bradford method with bovine serum albumin as the standard (Bradford, 1976).
0.1-1 mg of Hela or MEF lysate protein was incubated at 4° C. for 1 h on a shaking platform with 5 μg of the corresponding antibody, which had been previously conjugated to 5 μl of protein G-Sepharose. The immunoprecipitates were washed twice with 1 ml of Lysis Buffer containing 0.5 M NaCl, and twice with 1 ml of Buffer A. Phosphotransferase activity towards the AMARA peptide was then measured in a total assay volume of 50 μl as described above.

The mark [5] stands for this setting: HeLa cells stably expressing wild type LKB1.
The mark [6] stands for this setting: control HeLa cells not expressing LKB1.

Entries after “also recorded” stand apart in the source; their conditions may differ.

T1 sequence (Q13131 whole entry): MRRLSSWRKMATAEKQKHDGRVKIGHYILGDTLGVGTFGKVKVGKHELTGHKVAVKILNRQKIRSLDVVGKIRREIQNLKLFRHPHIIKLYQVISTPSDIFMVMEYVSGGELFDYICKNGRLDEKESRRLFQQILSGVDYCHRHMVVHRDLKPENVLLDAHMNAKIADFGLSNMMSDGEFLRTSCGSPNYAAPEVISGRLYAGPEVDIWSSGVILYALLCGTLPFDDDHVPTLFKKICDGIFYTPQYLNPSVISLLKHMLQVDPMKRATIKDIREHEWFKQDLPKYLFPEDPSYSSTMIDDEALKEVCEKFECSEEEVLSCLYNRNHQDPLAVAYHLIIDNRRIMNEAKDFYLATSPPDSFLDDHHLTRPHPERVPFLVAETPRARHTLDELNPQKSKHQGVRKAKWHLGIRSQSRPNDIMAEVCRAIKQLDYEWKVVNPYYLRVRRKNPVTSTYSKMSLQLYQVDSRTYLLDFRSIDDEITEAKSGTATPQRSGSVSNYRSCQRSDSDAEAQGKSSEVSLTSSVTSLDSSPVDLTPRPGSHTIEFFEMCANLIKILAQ
T1 sequence (Q9Y478 2-270 partner limits assumed): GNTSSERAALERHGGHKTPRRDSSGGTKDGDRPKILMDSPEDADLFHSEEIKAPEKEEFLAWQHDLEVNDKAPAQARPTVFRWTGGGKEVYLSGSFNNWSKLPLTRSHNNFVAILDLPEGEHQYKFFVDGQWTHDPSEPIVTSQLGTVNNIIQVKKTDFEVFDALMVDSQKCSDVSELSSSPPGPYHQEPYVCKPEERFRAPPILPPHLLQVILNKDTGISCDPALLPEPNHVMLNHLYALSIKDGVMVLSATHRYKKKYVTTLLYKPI
T1 sequence (P54619 whole entry partner): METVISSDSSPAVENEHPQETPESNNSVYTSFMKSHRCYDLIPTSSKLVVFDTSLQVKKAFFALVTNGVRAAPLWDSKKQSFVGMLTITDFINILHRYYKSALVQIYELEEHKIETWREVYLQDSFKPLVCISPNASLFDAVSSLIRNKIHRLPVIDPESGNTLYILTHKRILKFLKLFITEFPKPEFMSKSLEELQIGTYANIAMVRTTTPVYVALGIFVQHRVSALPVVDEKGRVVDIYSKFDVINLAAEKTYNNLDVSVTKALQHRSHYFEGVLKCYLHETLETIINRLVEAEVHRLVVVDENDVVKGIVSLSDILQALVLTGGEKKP

`NC(=O)c1ncn([C@@H]2O[C@H](CO)[C@@H](O)[C@H]2O)c1N` [AICA riboside, 5-aminoimidazole-4-carboxamide (AICA) riboside]: the “activation of AMPK” value at AMPK [1] (setting [5]) is listed as “robust activation”; on AMPK [1] (setting [6]) it was “neither AICA riboside nor phenformin activated AMPK”; on AMPK [2], “not activated”. For the same compound, the “phosphorylation of Thr-172 on the AMPKα subunit” value on AMPK [1] (setting [5]) is “restored”.
As for `[H]/N=C(/N)N/C(=N/[H])NCCc1ccccc1` [phenformin], the “activation of AMPK compared with metformin” value with AMPK [3] is “more rapidly and more potently than metformin”. In experiment [4], the “activity of AMPK-related kinases” value is on record as “none of the AMPK-related kinases were significantly activated”. For the same compound, on AMPK [1] (setting [5]), the “activation of AMPK” value was “robust activation; also recorded: larger activation of AMPK” and the “phosphorylation of Thr-172 on the AMPKα subunit” value was “restored”. The “activation of AMPK” value on AMPK [1] (setting [6]) was “neither AICA riboside nor phenformin activated AMPK”.
